Source: US20220259212A1, “INHIBITORS OF INDOLEAMINE 2,3-DIOXYGENASE AND/OR TRYPTOPHAN 2,3-DIOXYGENASE” (Idorsia Pharmaceuticals Ltd, priority 2019, published 2022)

How the values were obtained:
[1] = molecular target: T1, Recombinant full-length human IDO1 (Homo sapiens, UniProt P14902); test: IDO1 enzymatic assay (NFK quantified by LCMS); format: biochemical; settings: 2 nM enzyme, 5 μM L-tryptophan, 30 min pre-incubation, pH6.5; mean if measured multiple times; read-out: hIDO activity (IC50 in nM)
T1 construct: Recombinant full-length human IDO1 with a N-terminal hexahistidine tag; hexahistidine (N); made in house; host or cells: E. coli
T1 sequence (P14902 whole entry): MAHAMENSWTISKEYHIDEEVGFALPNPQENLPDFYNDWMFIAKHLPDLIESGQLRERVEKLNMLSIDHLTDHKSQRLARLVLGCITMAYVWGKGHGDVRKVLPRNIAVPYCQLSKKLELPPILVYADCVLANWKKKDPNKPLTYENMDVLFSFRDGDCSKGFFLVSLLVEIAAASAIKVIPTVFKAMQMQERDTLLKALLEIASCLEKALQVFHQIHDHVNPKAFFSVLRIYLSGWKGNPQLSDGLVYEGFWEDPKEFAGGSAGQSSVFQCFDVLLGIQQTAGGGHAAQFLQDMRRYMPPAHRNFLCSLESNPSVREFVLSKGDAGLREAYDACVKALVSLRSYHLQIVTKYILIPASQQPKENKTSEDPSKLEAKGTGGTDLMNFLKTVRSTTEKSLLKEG
Procedure, shortened: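 His-tagged full-length IDO1 (E. coli, 2 nM final) in pH 6.5 phosphate with ascorbate, methylene blue and catalase was preincubated 30 min at RT with compound (10 µM–0.5 nM, 0.6% DMSO), then run 30 min at RT with 5 µM L-Trp. NFK was measured by LCMS against a d5-Trp standard. IC50 came from a four-parameter fit of duplicates.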

[2] = molecular target: T2, Recombinant human TDO comprising amino acids 19-407 (Homo sapiens, UniProt P48775); test: TDO2 enzymatic assay (NFK quantified by LCMS); format: biochemical; settings: 15 nM enzyme, 200 μM L-tryptophan, 30 min pre-incubation, pH7; mean if measured multiple times; read-out: hTDO activity (IC50 in nM)
T2 construct: human TDO comprising amino acids 19-407; hexahistidine (N); made in house; host or cells: E. coli
T2 sequence (P48775 19-406 limits assumed): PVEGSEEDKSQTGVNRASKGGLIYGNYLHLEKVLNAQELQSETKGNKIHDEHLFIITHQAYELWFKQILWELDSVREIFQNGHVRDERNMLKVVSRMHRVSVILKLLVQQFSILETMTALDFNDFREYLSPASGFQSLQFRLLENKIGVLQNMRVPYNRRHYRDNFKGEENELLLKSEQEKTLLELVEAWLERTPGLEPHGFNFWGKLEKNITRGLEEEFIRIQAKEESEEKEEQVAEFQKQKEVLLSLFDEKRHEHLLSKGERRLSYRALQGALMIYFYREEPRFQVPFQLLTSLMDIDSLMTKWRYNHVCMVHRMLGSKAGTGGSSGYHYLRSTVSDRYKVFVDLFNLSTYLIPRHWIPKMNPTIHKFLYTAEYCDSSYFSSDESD
Procedure, shortened: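 E. coli-expressed N-terminal His-tagged TDO (15 nM) in pH 7 phosphate buffer with ascorbate and catalase, preincubated 30 min at RT with compound (10 μM to 0.5 nM, 0.6% DMSO). Reaction started with 200 μM L-tryptophan for 30 min at RT; NFK measured by LCMS against deuterated internal standard, IC50 by four-parameter fit, duplicates.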

[3] = molecular target: T3, IDO1 in SKOV3 cells (Homo sapiens, UniProt P14902); test: Cell-based IDO inhibitory activity in IFNγ-stimulated SKOV3 cells (NFK + kynurenine by LCMS); settings: IFNγ 50 ng/ml, 200 uM L-tryptophan, 24 hours
T3 construct: SKOV3 cells (NCI, No. 0503405) which upregulate IDO1 after stimulation with IFNγ; host or cells: SKOV3 cells stimulated with IFNγ
T3 sequence (P14902 whole entry): as the sequence (P14902 whole entry) above
Procedure, shortened: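 SKOV3 cells (4000/well, pre-cultured 24 h) were treated with compound (10 uM-40 nM) plus 200 uM L-tryptophan and 50 ng/ml IFNγ for 24 h at 37° C. N-formylkynurenine plus kynurenine in supernatant was measured by LCMS against a d5-tryptophan internal standard. IC50 was fitted against 0.2% DMSO and reference-inhibitor controls, in duplicate, with repeat measurements averaged.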

| Compound | IC50 [1] [nM] | IC50 [2] [nM] | IC50 [3] [nM] |
| --- | --- | --- | --- |
| Oc1ccc(-n2cc(C(O)c3c(C4CC4)ccc4cncn34)nn2)cc1Cl (racemic) [Example 7, rac-2-Chloro-4-{4-[(6-cyclopropyl-imidazo[1,5-a]pyridin-5-yl)-hydroxy-methyl]-[1,2,3]triazol-1-yl}-phenol] | 3.77 | > 10200 | 6.12 |
| COc1c(F)cc(-n2cc([C@H](O)c3c(C4CC4)ncc4cncn34)nn2)cc1Cl [Example 26, (R)-[1-(3-Chloro-5-fluoro-4-methoxy-phenyl)-1H-[1,2,3]triazol-4-yl]-(6-cyclopropyl-imidazo[1,5-a]pyrazin-5-yl)-methanol] | 4.5 | > 10200 | 74.3 |
| Oc1ccc(-n2cc(C(O)c3c(C4CC4)ncc4cncn34)nn2)cc1Cl (racemic) [Example 10, rac-2-Chloro-4-{4-[(6-cyclopropyl-imidazo[1,5-a]pyrazin-5-yl)-hydroxy-methyl]-[1,2,3]triazol-1-yl}-phenol] | 9.6 | > 10200 | 25.4 |
| Cc1c(C(O)c2c(Cl)ccc3cncn23)nnn1-c1ccccc1 (racemic) [Example 38, rac-(6-Chloro-imidazo[1,5-a]pyridin-5-yl)-(5-methyl-1-phenyl-1H-[1,2,3]triazol-4-yl)-methanol] | 5.43 | 4710 | 86 |
| Nc1ccc(-n2cc([C@H](O)c3c(C4CC4)ncc4cncn34)nn2)cc1 [Example 41, (R)-[1-(4-Amino-phenyl)-1H-[1,2,3]triazol-4-yl]-(6-cyclopropyl-imidazo[1,5-a]pyrazin-5-yl)-methanol] | 17.5 | > 10200 | 212 |
| O[C@@H](c1cn(-c2ccc(OCC3COC3)c(F)c2)nn1)c1c(C2CC2)ncc2cncn12 [Example 36, (R)-(6-Cyclopropyl-imidazo[1,5-a]pyrazin-5-yl)-{1-[3-fluoro-4-(oxetan-3-ylmethoxy)-phenyl]-1H-[1,2,3]triazol-4-yl}-methanol] | 8.33 | > 10200 | 16.8 |
| COc1ccc(-n2cc([C@H](O)c3c(C4CC4)ccc4cncn34)nn2)cc1Cl [Example 8a, (R)-[1-(3-Chloro-4-methoxy-phenyl)-1H-[1,2,3]triazol-4-yl]-(6-cyclopropyl-imidazo[1,5-a]pyridin-5-yl)-methanol] | 9.85 | > 10200 | 18.9 |
| COc1cc(F)c(-n2cc([C@H](O)c3c(C4CC4)ncc4cncn34)nn2)cc1F [Example 22, (R)-(6-Cyclopropyl-imidazo[1,5-a]pyrazin-5-yl)-[1-(2,5-difluoro-4-methoxy-phenyl)-1H-[1,2,3]triazol-4-yl]-methanol] | 6.36 | > 10200 | 20.2 |
| OC(c1cnn(-c2ccccc2)n1)c1c(Cl)ccc2cncn12 (racemic) [Ref3, rac-(6-Chloro-imidazo[1,5-a]pyridin-5-yl)-(2-phenyl-2H-[1,2,3]triazol-4-yl)-methanol, reference compound] | 161 | 8920 | > 10000 |
| COc1ccc(-n2cc(C(O)c3c(C4CC4)ncc4cncn34)nn2)cc1Cl (racemic) [Example 11, rac-[1-(3-Chloro-4-methoxy-phenyl)-1H-[1,2,3]triazol-4-yl]-(6-cyclopropyl-imidazo[1,5-a]pyrazin-5-yl)-methanol] | 12.5 | > 10200 | 37.1 |
| COc1ccc(-n2cc(C(O)c3c(C4CC4)ccc4cncn34)nn2)cc1 (racemic) [Example 4, rac-(6-Cyclopropyl-imidazo[1,5-a]pyridin-5-yl)-[1-(4-methoxy-phenyl)-1H-[1,2,3]triazol-4-yl]-methanol] | 3.7 | > 10200 | 42.2 |
| COC(=O)Nc1ccc(-n2cc(C(O)c3c(C4CC4)ccc4cncn34)nn2)cc1 (racemic) [Example 6, rac-(4-{4-[(6-Cyclopropyl-imidazo[1,5-a]pyridin-5-yl)-hydroxy-methyl]-[1,2,3]triazol-1-yl}-phenylycarbamic acid methyl ester] | 9.14 | > 10200 | 11.8 |
